Where two headings read alike, the source gives them in different places. Marks after values point to notes of the source that are not given here.
Tests used:
human lymphocytes = assay: Micronucleus (MN) assay, cytokinesis block; format: cell-based; details: for MN frequency in binucleated cells: male, human, 24 h
Experimental: The MN assay was performed using blood samples from healthy, nonsmoking males, as provided by the AVIS (Italian Association of Voluntary Blood Donors). […] Cytochalasin-B was added 44 hours after the start of incubation at a final concentration of 6 μg/mL; at 48 hours, the lymphocytes were treated with the different drugs. […] Each treatment was tested with cells from two donors, performed in duplicate separate cultures (i.e., four cultures were set up for each treatment). After incubation, the lymphocytes were collected and resuspended in a mild hypotonic solution (0.075 M KCl) and then added with an ice-cold 5 : 3 acetic acid : methanol solution. After centrifugation (500 g, 10 min), the pellets were resuspended in cold (-20°C) methanol and maintained at -20°C (at least 24 hours). […] Scoring was done using an […] (Munich, Germany) light microscope at 1000X magnification. […] NDI data were analyzed by Student's t-test.

[1] = tested on: immortalized lymphocytes (Epstein-Barr virus lymphoblastoid cell line); assay: Long-term exposure cytotoxicity assay (MTS); format: cell-based, human; details: 48 hours treatment
[2] = tested on: Salmonella typhimurium TA100; details: for Specific mutagenic activity (revertant increase/dose unit): linear regression
human leukocytes [3] = assay: Modified comet assay with ENDOIII for oxidised bases; details: 37°C, 1 hour
Experimental: Oxidatively generated damage can be evaluated easily by comparing the DNA migration in enzyme-or buffer-treated samples. The comet assay, with the modification of an extra step after lysis in which DNA is digested with the repair enzyme, was performed according to Collins et al. […] ENDOIII was isolated from bacteria containing over-producing plasmids (Collin's Laboratory, Rowett Research Institute, Bucksburn, Aberdeen, UK). The enzyme-treated gels reveal alkali labile sites and strand breaks (ALS/SB) and oxidised bases (ALS/SB + OX). Assuming a linear dose response, subtraction of (ALS/SB) from (ALS/SB + OX) gives a measure of oxidised bases. The SPSS 11 statistical package was used to analyse statistical differences between samples. Statistical differences between controls and treated samples were first determined with the nonparametric Wilcoxon rank-sum test for each experiment. The mean values from the repeated experiments were used in a one-way analysis of variance. Analysis of variance was followed by single or multiple pairwise comparisons. Data were tested for normality and homogeneity of variance. When these criteria were met, the data were compared using Dunnett's version of the t-test.

human leukocytes [4] = format: cell-based; details: 1 hour treatment, measured immediately after exposure; NFX 0–348 μM, BNZ 0–348 μM, MTZ 0–585 μM
[5] = tested on: Salmonella typhimurium TA98; details: for Specific mutagenic activity (revertant increase/dose unit): linear regression

O=C(Cn1ccnc1[N+](=O)[O-])NCc1ccccc1 [BNZ, N-benzyl-2-(2-nitroimidazol-1-yl)acetamide]
Effect on MN frequency (human lymphocytes; 24-hours treated lymphocytes): did not alter MN frequency | MN (human lymphocytes; 24h, 3.8 µM): 4.0± 0.5 x10-3 BN | NDI (human lymphocytes; 24h, 3.8 µM): 1.97± 0.11 | NDI (%) (human lymphocytes; 24h, 3.8 µM): 94± 5% | MN (human lymphocytes; 24h, 7.7 µM): 3.5± 1.0 x10-3 BN | NDI (human lymphocytes; 24h, 7.7 µM): 1.97± 0.07 | NDI (%) (human lymphocytes; 24h, 7.7 µM): 94± 3% | MN (human lymphocytes; 24h, 15.4 µM): 2.5± 0.5 x10-3 BN | NDI (human lymphocytes; 24h, 15.4 µM): 2.00± 0.06 | NDI (%) (human lymphocytes; 24h, 15.4 µM): 95± 3% | MN (human lymphocytes; 24h, 30.7 µM): 4.5± 1.0 x10-3 BN | NDI (%) (human lymphocytes; 24h, 30.7 µM): 97± 2% | MN (human lymphocytes; 24h, 61.5 µM): 3.5± 0.5 x10-3 BN | NDI (human lymphocytes; 24h, 61.5 µM): 1.99± 0.07 | NDI (%) (human lymphocytes; 24h, 61.5 µM): 95± 3% | MN (human lymphocytes; 24h, 96.1 µM): 3.0± 0.5 x10-3 BN | NDI (human lymphocytes; 24h, 96.1 µM): 2.01± 0.03 | NDI (%) (human lymphocytes; 24h, 96.1 µM): 96± 1% | MN (human lymphocytes; 24h, 192.1 µM): 5.0± 1.0 x10-3 BN | NDI (human lymphocytes; 24h, 192.1 µM): 2.07± 0.07 | NDI (%) (human lymphocytes; 24h, 192.1 µM): 99± 3% | MN (human lymphocytes; 24h, 384.2 µM): 3.5± 0.5 x10-3 BN | NDI (%) (human lymphocytes; 24h, 384.2 µM): 97± 5% | Effect on MN frequency (human lymphocytes; 72 hours treated lymphocytes): increase of MN frequency | Effect on nuclear division (NDI) (human lymphocytes; 72 hours treated lymphocytes): without some decrease of nuclear division | MN (human lymphocytes; 72 hours, 3.8 μM): 3.5 ± 1.0 ×10^−3 BN | NDI (human lymphocytes; 72 hours, 3.8 μM): 1.93 ± 0.11 | NDI (%) (human lymphocytes; 72 hours, 3.8 μM): 100 ± 6% | MN (human lymphocytes; 72 hours, 7.7 μM): 4.0 ± 1.0 ×10^−3 BN | NDI (human lymphocytes; 72 hours, 7.7 μM): 2.00 ± 0.07 | NDI (%) (human lymphocytes; 72 hours, 7.7 μM): 104 ± 4% | MN (human lymphocytes; 72 hours, 15.4 μM): 4.0 ± 1.5 ×10^−3 BN | NDI (human lymphocytes; 72 hours, 15.4 μM): 1.98 ± 0.06 | NDI (%) (human lymphocytes; 72 hours, 15.4 μM): 102 ± 3% | MN (human lymphocytes; 72 hours, 30.7 μM): 3.5 ± 1.0 ×10^−3 BN | NDI (human lymphocytes; 72 hours, 30.7 μM): 1.99 ± 0.05 | NDI (%) (human lymphocytes; 72 hours, 30.7 μM): 103 ± 3% | MN (human lymphocytes; 72 hours, 61.5 μM): 3.0 ± 0.5 ×10^−3 BN | NDI (human lymphocytes; 72 hours, 61.5 μM): 2.06 ± 0.07 | NDI (%) (human lymphocytes; 72 hours, 61.5 μM): 107 ± 4% | MN (human lymphocytes; 72 hours, 96.1 μM): 9.0 ± 0.5 ×10^−3 BN | NDI (human lymphocytes; 72 hours, 96.1 μM): 2.05 ± 0.03 | NDI (%) (human lymphocytes; 72 hours, 96.1 μM): 106 ± 2% | MN (human lymphocytes; 72 hours, 192.1 μM): 13.0 ± 1.0^b ×10^−3 BN | NDI (human lymphocytes; 72 hours, 192.1 μM): 2.00 ± 0.07 | NDI (%) (human lymphocytes; 72 hours, 192.1 μM): 104 ± 4% | MN (human lymphocytes; 72 hours, 384.2 μM): 16.5 ± 0.5^b ×10^−3 BN | NDI (human lymphocytes; 72 hours, 384.2 μM): 1.93 ± 0.10 | NDI (%) (human lymphocytes; 72 hours, 384.2 μM): 100 ± 6% | Cytotoxic effect on cultured lymphocytes [1]: did not show any significant effects | Lowest effective dose / concentration significantly increasing the revertant number ([2]; TA100): 5 µg/mL | Revertants ([2]; TA100 +S9, 5 µg/plate): 406± 13 | Revertants ([2]; TA100 +S9, 10 µg/plate): 811± 55 | Revertants ([2]; TA100 +S9, 20 µg/plate): 1445± 85 | Revertants ([2]; TA100 +S9, 40 µg/plate): 3117± 169 | Revertants ([2]; TA100 +S9, 80 µg/plate): 4901± 166 | Revertants ([2]; TA100 -S9, 5 µg/plate): 498± 25 | Revertants ([2]; TA100 -S9, 10 µg/plate): 943± 27 | Revertants ([2]; TA100 -S9, 20 µg/plate): 1801± 67 | Revertants ([2]; TA100 -S9, 40 µg/plate): 3344± 104 | Revertants ([2]; TA100 -S9, 80 µg/plate): 5287± 81 | Specific mutagenic activity (revertant increase/dose unit) ([2]; TA100 with S9 mix): 60.92 (0.98) | Specific mutagenic activity (revertant increase/dose unit) ([2]; TA100 without S9 mix): 64.96 (0.98) | Specific genotoxic activity, DNA migration/dose unit (II: comet assay modified with ENDOIII, DNA oxidative damage) (human leukocytes [3]): 0.9077 (r ^2 = 0.8351) μm/μM | Cellular survival rate (human leukocytes [4]): did not appear to be affected | Revertants ([5]; TA98 +S9, 5 µg/plate): 20± 2 | Revertants ([5]; TA98 +S9, 10 µg/plate): 18± 2 | Revertants ([5]; TA98 +S9, 20 µg/plate): 22± 8 | Revertants ([5]; TA98 +S9, 40 µg/plate): 24± 5 | Revertants ([5]; TA98 +S9, 80 µg/plate): 23± 4 | Revertants ([5]; TA98 +S9, 125 µg/plate): 34± 2 | Revertants ([5]; TA98 +S9, 250 µg/plate): 43± 9 | Revertants ([5]; TA98 +S9, 500 µg/plate): 44± 6 | Revertants ([5]; TA98 -S9, 5 µg/plate): 10± 2 | Revertants ([5]; TA98 -S9, 10 µg/plate): 16± 4 | Revertants ([5]; TA98 -S9, 20 µg/plate): 14± 6 | Revertants ([5]; TA98 -S9, 40 µg/plate): 15± 1 | Revertants ([5]; TA98 -S9, 80 µg/plate): 14± 2 | Revertants ([5]; TA98 -S9, 125 µg/plate): 26± 3 | Revertants ([5]; TA98 -S9, 250 µg/plate): 39± 3 | Revertants ([5]; TA98 -S9, 500 µg/plate): 45± 5 | Specific mutagenic activity (revertant increase/dose unit) ([5]; TA98 with S9 mix): 0.10 (0.93) | Specific mutagenic activity (revertant increase/dose unit) ([5]; TA98 without S9 mix): 0.07 (0.88)

CCOS(C)(=O)=O [ethyl methane sulfonate]
MN frequency in binucleated cells (human lymphocytes; 1 μM): 15.0 ± 2.8 ×10^−3 BN | MN frequency in binucleated cells (human lymphocytes; 120 µg/ml): 15.0± 2.8 x10-3 BN

O=[N+]([O-])c1ccc2c(c1)Cc1ccccc1-2 [2-NF, 2-nitrofluorene]
Revertant/plate ([5]; 15 μg/plate, TA98 without S9): 169 ± 7

Reference: paper PMC2963127, “Genotoxicity Revaluation of Three Commercial Nitroheterocyclic Drugs: Nifurtimox, Benznidazole, and Metronidazole” (Journal of Parasitology Research, 2009)
